Reference: article PMC8249783, “A novel multikinase inhibitor SKLB‐YTH‐60 ameliorates inflammation and fibrosis in bleomycin‐induced lung fibrosis mouse models” (Cell Proliferation, 2021)
Converted amounts (≈) assume the structure as drawn. Where two headings read alike, the source gives them in different places.

Legend:
[1] = set-up: method as in PMID 25474320; details: 50 mg·kg^−1 oral administration; cited from earlier work
[2] = Determination of thermodynamic solubility; type: physicochemical; details: thermodynamic from solid, double testing
Experimental: Weigh about 1 mg of the test compound into 1.5 mL centrifuge tube and add 0.5 mL various solvents, sonicating for 5 minutes (if the compound is completely dissolved, then added again test compound until a little solid remains). Take the supernatant after centrifugation, diluting to a suitable concentration using and measuring absorbance values by UV spectrophotometer. Weigh 10 mg compound accurately of the test compound into 1.5 mL centrifuge tube and add 1.2 mL methanol solution to prepare 8.3 mg·mL^−1 mother solution. Take the above described mother liquor to prepare the solution in concentrations of 8.3, 4.2, 2.1, 1.0, 0.52, 0.26 mg·mL^−1 then measure absorbance value. With concentration c (mg·mL^−1) as the abscissa, absorbance A as the ordinate, mapping and fitting line to get the standard curve (The correlation coefficient should be greater than 0.998). Calculate solubility according to the standard curve of the linear equation.

[3] = tested on: lung MDSCs and macrophages; assay: Flow cytometry of MDSCs and macrophages in lung tissue of BLM mice; type: in vivo, C57BL/6 mice; details: 30 mg·kg^−1 i.p.
Experimental: Male C57BL/6 mice (8‐10 weeks old) were purchased from HFK Bioscience Co. Ltd. All animal experiments were permitted by the Institutional Animal Care and Treatment Committee of Sichuan University in China (New Permit Number: 20190524003). Lung fibrosis was induced using BLM treatment (2 mg·kg^−1). All C57BL/6 mice were divided into five groups (n = 10): a BLM + Nintedanib group (Nintedanib, 30 mg·kg^−1), a BLM + YTH‐60 group (YTH‐60, 15 mg·kg^−1 and 30 mg·kg^−1), a control group (Sham), and a bleomycin group (Vehicle). At the beginning, the mice were anaesthetized using 10% chloral hydrate, dissolved BLM with saline and administered intratracheally. To evaluate the preventive effect, the next day after BLM challenge, YTH‐60 and Nintedanib were administered intraperitoneally daily for 13 days (fibroproliferation) to the mice. All mice were sacrificed 24 hours after the last drug injection, the lungs and other organs were taken for the subsequent analysis. To test the therapeutic effect, after the 7th day of BLM treatment, mice were injected intraperitoneally with YTH‐60, Nintedanib and vehicle daily for 7 consecutive days (fibroproliferation).
We analysed the percentage of MDSCs and macrophages by Flow cytometry (FCM). ^22 Use scissors to cut approximately 30 mg of mouse lung tissues into small pieces and use 5 mL of collagenase‐IV with a concentration of 1 mg·mL^−1, digested at 37°C for at least 1 hour. Centrifuge at 400 g for 5 minutes and discard the supernatant. Then, add another 5 mL PBS to resuspend, after precipitation, taken the supernatant and mixed with the corresponding fluorochromium binding antibody, incubate for 30 minutes in the dark at 4°C (MDSCs with PE^−CD11b^−, FITC^−Gr1^− conjugated dual labelling and macrophages with PE^−F4/80^−, FITC^−CD11b^− conjugated dual labelling). The data were acquired with a FACS Canton II NovoCyte (ACEA).

solubility at 5 min ([2]; organic solvent or mixture, Acetone, read-out: Solubility, Acetone): 9830 ± 420 µg/mL (≈ 18.2 mM)
solubility at 5 min ([2]; organic solvent or mixture, Acetonitrile, read-out: Solubility, Acetonitrile): 3520 ± 64 µg/mL (≈ 6.53 mM)
solubility at 5 min ([2]; organic solvent or mixture, Ethyl acetate, read-out: Solubility, Ethyl acetate): 9750 ± 350 µg/mL (≈ 18.1 mM)
solubility at 5 min ([2]; organic solvent or mixture, Ethyl alcohol, read-out: Solubility, Ethyl alcohol): 12500 ± 2200 µg/mL (≈ 23.1 mM)
solubility at 5 min ([2]; saline or isotonic, Normal saline, read-out: Solubility, Normal saline): 1930 ± 180 µg/mL (≈ 3.58 mM)
solubility at 5 min ([2]; Water, read-out: Solubility, Water): 280 ± 15 µg/mL (≈ 0.519 mM)
Compound: COC(=O)c1ccc2c(c1)NC(=O)/C2=C(\Nc1ccc(N(C)C(=O)CN2CCN(C)CC2)cc1)c1ccccc1 [Nintedanib, reference compound]
mean bioavailability [1]: 11.9%
percentage of CD11b^+F4/80^+ cells (macrophages) in lung ([3]; day 14, BLM group 19.9%, sham 9.9%): 13.89%
percentage of CD11b^+Gr1^+ cells (MDSCs) in lung ([3]; day 14, BLM group 20.5%, sham 5.14%): 10.46%
